Test results as given in patent US12696901B2, “Pesticidally active heterocyclic derivatives with sulfur containing substituents” (SYNGENTA CROP PROTECTION AG, priority 2020, dated 2026).

Columns and labels:
Type in all cases: in vivo
[1] = test system: Euschistus heros (Neotropical Brown Stink Bug); experiment: Activity against Euschistus heros (neotropical brown stink bug), sprayed soybean leaves; settings: 120 h, application rate 200 ppm, N2 nymphs, 5 days after infestation, read-out: effect in at least one of the two categories (mortality or growth inhibition)
Method: Example B3: Activity Against Euschistus heros (Neotropical Brown Stink Bug)
Soybean leaves on agar in 24-well microtiter plates were sprayed with aqueous test solutions prepared from 10,000 ppm DMSO stock solutions. After drying the leaves were infested with N2 nymphs. The samples were assessed for mortality and growth inhibition in comparison to untreated samples 5 days after infestation.

[2] = test system: Diabrotica balteata (Corn Root Worm); experiment: Activity against Diabrotica balteata (corn root worm), sprayed maize sprouts on agar; settings: 96 h, application rate 200 ppm, L2 larvae, 4 days after infestation, read-out: effect in at least one of the two categories (mortality or growth inhibition)
Method: Example B2: Activity Against Diabrotica balteata (Corn Root Worm)
Maize sprouts placed onto an agar layer in 24-well microtiter plates were treated with aqueous test solutions prepared from 10,000 ppm DMSO stock solutions by spraying. After drying, the plates were infested with L2 larvae (6 to 10 per well). The samples were assessed for mortality and growth inhibition in comparison to untreated samples 4 days after infestation.

[3] = test system: Spodoptera littoralis (Egyptian Cotton Leaf Worm); experiment: Activity against Spodoptera littoralis (Egyptian cotton leaf worm), sprayed cotton leaf discs; settings: foliar, 72 h, application rate 200 ppm, L1 larvae, 3 days after infestation
Method: Example B7: Activity Against Spodoptera littoralis (Egyptian Cotton Leaf Worm)
Cotton leaf discs were placed onto agar in 24-well microtiter plates and sprayed with aqueous test solutions prepared from 10,000 ppm DMSO stock solutions. After drying the leaf discs were infested with five L1 larvae. The samples were assessed for mortality, anti-feeding effect, and growth inhibition in comparison to untreated samples 3 days after infestation. Control of Spodoptera littoralis by a test sample is given when at least one of the categories mortality, anti-feedant effect, and growth inhibition is higher than the untreated sample.

[4] = test system: Plutella xylostella (Diamond Back Moth); experiment: Activity against Plutella xylostella (diamond back moth), treated artificial diet; settings: 192 h, application rate 200 ppm, eggs, 8 days after infestation, read-out: effect in at least one of the two categories (mortality or growth inhibition)
Method: Example B5: Activity Against Plutella xylostella (Diamond Back Moth)
24-well microtiter plates with artificial diet were treated with aqueous test solutions prepared from 10,000 ppm DMSO stock solutions by pipetting. After drying, Plutella eggs were pipetted through a plastic stencil onto a gel blotting paper and the plate was closed with it. The samples were assessed for mortality and growth inhibition in comparison to untreated samples 8 days after infestation.

[5] = test system: Myzus persicae (Green Peach Aphid); experiment: Activity against Myzus persicae (green peach aphid), feeding/contact activity; settings: 144 h, application rate 200 ppm, mixed ages, 6 days after infestation
Method: Example B6: Activity Against Myzus persicae (Green Peach Aphid) Feeding/Contact Activity
Sunflower leaf discs were placed onto agar in a 24-well microtiter plate and sprayed with aqueous test solutions prepared from 10,000 ppm DMSO stock solutions. After drying, the leaf discs were infested with an aphid population of mixed ages. The samples were assessed for mortality 6 days after infestation.

[6] = test system: Carpocapsa (Cydia) Pomonella (Codling Moth); experiment: Activity against Carpocapsa (Cydia) pomonella (codling moth), sprayed diet cubes; settings: 336 h, application rate 12.5 ppm, L1 larvae, 14 days after infestation, read-out: effect in at least one of the two categories (mortality or growth inhibition)
Method: Example B11: Activity Against Carpocapsa (Cydia) Pomonella (Codling Moth)
Diet cubes coated with paraffin were sprayed with diluted test solutions in an application chamber. After drying off the treated cubes (10 replicates) were infested with 1 L1 larvae. Samples were incubated at 26-27° C. and checked 14 days after infestation for mortality and growth inhibition. The following compounds gave an effect of at least 80% in at least one of the two categories (mortality or growth inhibition) at an application rate of 12.5 ppm: P1, P2, P3, P4, P5, P6, P10, P11, P12, P14, P15, P16, P17, P19, P20, P21, P22, P24, P27, P29, P30, P33, P34, P35.

[7] = test system: Diabrotica balteata (Corn Root Worm); experiment: Activity against Diabrotica balteata (corn root worm), corn seedlings on filter paper in cups; settings: 120 h, application rate 3 ppm, L2 larva, 5 days after treatment, read-out: effect in at least one of the two categories (mortality or growth inhibition)
Method: Example B12: Activity Against Diabrotica Balteata (Corn Root Worm)
Three corn seedlings were placed on wetted filter paper in plastic cups, and 3 ml of diluted test solutions were pipetted onto them. The cups were infested with 10 L2 larva and checked for mortality and growth regulation 5 days after treatment.

[8] = test system: Bemisia tabaci (Cotton White Fly); experiment: Activity against Bemisia tabaci (cotton white fly), sprayed cotton leaf discs; settings: foliar, 144 h, application rate 200 ppm, adult white flies, 6 days after incubation
Method: Example B1: Activity Against Bemisia tabaci (Cotton White Fly)
Cotton leaf discs were placed on agar in 24-well microtiter plates and sprayed with aqueous test solutions prepared from 10,000 ppm DMSO stock solutions. After drying the leaf discs were infested with adult white flies. The samples were checked for mortality 6 days after incubation.

[9] = test system: Chilo suppressalis (Striped Rice Stemborer); experiment: Activity against Chilo suppressalis (striped rice stemborer), treated artificial diet; settings: 144 h, application rate 200 ppm, L2 larvae, 6 days after infestation
Method: Example B10: Activity Against Chilo suppressalis (Striped Rice Stemborer)
24-well microtiter plates with artificial diet were treated with aqueous test solutions prepared from 10,000 ppm DMSO stock solutions by pipetting. After drying, the plates were infested with L2 larvae (6-8 per well). The samples were assessed for mortality, anti-feeding effect, and growth inhibition in comparison to untreated samples 6 days after infestation. Control of Chilo suppressalis by a test sample is given when at least one of the categories mortality, anti-feedant effect, and growth inhibition is higher than the untreated sample.

CCS(=O)(=O)c1c(N2Cc3cnc(C(F)(F)F)cc3C2=O)sc2cc(C(F)(F)F)ccc12 [Compound P1, 2-[3-ethylsulfonyl-6-(trifluoromethyl)benzothiophen-2-yl]-6-(trifluoromethyl)-3H-pyrrolo[3,4-c]pyridin-1-one]
≥ 80%: percent effect (mortality or growth inhibition) at 200 ppm [1] | percent effect (mortality or growth inhibition) at 200 ppm [2] | percent control (mortality, anti-feedant effect or growth inhibition) at 200 ppm [3] | percent effect (mortality or growth inhibition) at 200 ppm [4] | mortality at 200 ppm [5] | percent effect (mortality or growth inhibition) at 12.5 ppm [6] | percent effect (mortality or growth inhibition) at 3 ppm [7] | mortality at 200 ppm [8]

CCS(=O)(=O)c1c(N2Cc3ncc(C(F)(F)F)cc3C2=O)nc2ccc(C(F)(F)F)cn12 [Compound P4, 6-[3-ethylsulfonyl-6-(trifluoromethyl)imidazo[1,2-a]pyridin-2-yl]-3-(trifluoromethyl)-7H-pyrrolo[3,4-b] pyridin-5-one]
≥ 80%: percent effect (mortality or growth inhibition) at 200 ppm [1] | percent effect (mortality or growth inhibition) at 200 ppm [2] | percent control (mortality, anti-feedant effect or growth inhibition) at 200 ppm [3] | percent effect (mortality or growth inhibition) at 200 ppm [4] | mortality at 200 ppm [5] | percent effect (mortality or growth inhibition) at 12.5 ppm [6] | percent effect (mortality or growth inhibition) at 3 ppm [7] | mortality at 200 ppm [8]

CCS(=O)(=O)c1c(N2Cc3ccc(OC(F)(F)F)cc3C2=O)nc2ccc(C(F)(F)F)cn12 [Compound P6, 2-[3-ethylsulfonyl-6-(trifluoromethyl)imidazo[1,2-a]pyridin-2-yl]-6-(trifluoromethoxy) isoindolin-1-one]
≥ 80%: percent effect (mortality or growth inhibition) at 200 ppm [1] | percent effect (mortality or growth inhibition) at 200 ppm [2] | percent control (mortality, anti-feedant effect or growth inhibition) at 200 ppm [3] | percent effect (mortality or growth inhibition) at 200 ppm [4] | mortality at 200 ppm [5] | percent effect (mortality or growth inhibition) at 12.5 ppm [6] | percent effect (mortality or growth inhibition) at 3 ppm [7] | mortality at 200 ppm [8]

CCS(=O)(=O)c1c(N2Cc3ccc(OC(F)(F)F)cc3C2=O)nc2cc(C(F)(F)F)ccn12 [Compound P7, 2-[3-ethylsulfonyl-7-(trifluoromethyl)imidazo[1,2-a]pyridin-2-yl]-6-(trifluoromethoxy) isoindolin-1-one]
≥ 80%: percent effect (mortality or growth inhibition) at 200 ppm [2] | percent control (mortality, anti-feedant effect or growth inhibition) at 200 ppm [3] | percent effect (mortality or growth inhibition) at 200 ppm [4] | mortality at 200 ppm [5] | percent effect (mortality or growth inhibition) at 3 ppm [7] | mortality at 200 ppm [8]

CCS(=O)(=O)c1c(N2Cc3ncc(C(F)(F)F)cc3C2=O)nc2ccc(OCC(F)F)cn12 [Compound P19, 6-[6-(2,2-difluoroethoxy)-3-ethylsulfonyl-imidazo[1,2-a]pyridin-2-yl]-3-(trifluoromethyl)-7H-pyrrolo[3,4-b]pyridin-5-one]
≥ 80%: percent effect (mortality or growth inhibition) at 200 ppm [1] | percent effect (mortality or growth inhibition) at 200 ppm [2] | percent control (mortality, anti-feedant effect or growth inhibition) at 200 ppm [3] | percent effect (mortality or growth inhibition) at 200 ppm [4] | percent control (mortality, anti-feedant effect or growth inhibition) at 200 ppm [9] | mortality at 200 ppm [5] | percent effect (mortality or growth inhibition) at 12.5 ppm [6] | percent effect (mortality or growth inhibition) at 3 ppm [7]

CCS(=O)(=O)c1c(N2Cc3ncc(C(F)(F)F)cc3C2=O)nc2ccc(OC(C)(C)C#N)cn12 [Compound P20, 2-[3-ethylsulfonyl-2-[5-oxo-3-(trifluoromethyl)-7H-pyrrolo[3,4-b]pyridin-6-yl]imidazo [1,2-a]pyridin-6-yl] oxy-2-methyl-propanenitrile]
≥ 80%: percent effect (mortality or growth inhibition) at 200 ppm [2] | percent control (mortality, anti-feedant effect or growth inhibition) at 200 ppm [3] | percent effect (mortality or growth inhibition) at 200 ppm [4] | percent control (mortality, anti-feedant effect or growth inhibition) at 200 ppm [9] | mortality at 200 ppm [5] | percent effect (mortality or growth inhibition) at 12.5 ppm [6] | percent effect (mortality or growth inhibition) at 3 ppm [7] | mortality at 200 ppm [8]

CCS(=O)(=O)c1c(N2Cc3ncc(C(F)(F)F)cc3C2=O)nc2ccc(Br)cn12 [Compound P21, 6-(6-bromo-3-ethylsulfonyl-imidazo[1,2-a]pyridin-2-yl)-3-(trifluoromethyl)-7H-pyrrolo[3,4-b]pyridin-5-one]
≥ 80%: percent effect (mortality or growth inhibition) at 200 ppm [1] | percent effect (mortality or growth inhibition) at 200 ppm [2] | percent control (mortality, anti-feedant effect or growth inhibition) at 200 ppm [3] | percent effect (mortality or growth inhibition) at 200 ppm [4] | percent control (mortality, anti-feedant effect or growth inhibition) at 200 ppm [9] | mortality at 200 ppm [5] | percent effect (mortality or growth inhibition) at 12.5 ppm [6] | percent effect (mortality or growth inhibition) at 3 ppm [7]

CCS(=O)(=O)c1c(N2Cc3ncc(C(F)(F)F)cc3C2=O)nc2cc(C3CC3)ccn12 [Compound P24, 6-(7-cyclopropyl-3-ethylsulfonyl-imidazo[1,2-a]pyridin-2-yl)-3-(trifluoromethyl)-7H-pyrrolo[3,4-b]pyridin-5-one]
≥ 80%: percent effect (mortality or growth inhibition) at 200 ppm [1] | percent effect (mortality or growth inhibition) at 200 ppm [2] | percent control (mortality, anti-feedant effect or growth inhibition) at 200 ppm [3] | percent effect (mortality or growth inhibition) at 200 ppm [4] | percent control (mortality, anti-feedant effect or growth inhibition) at 200 ppm [9] | mortality at 200 ppm [5] | percent effect (mortality or growth inhibition) at 12.5 ppm [6] | percent effect (mortality or growth inhibition) at 3 ppm [7]

CCS(=O)(=O)c1c(N2Cc3ccc(OC(F)(F)F)cc3C2=O)nc2ccc(OC(C)(C)C#N)cn12 [Compound P26, 2-[3-ethylsulfonyl-2-[1-oxo-6-(trifluoromethoxy)isoindolin-2-yl]imidazo[1,2-a]pyridin-6-yl]oxy-2-methyl-propanenitrile]
≥ 80%: percent effect (mortality or growth inhibition) at 200 ppm [2] | percent control (mortality, anti-feedant effect or growth inhibition) at 200 ppm [3] | percent effect (mortality or growth inhibition) at 200 ppm [4] | percent control (mortality, anti-feedant effect or growth inhibition) at 200 ppm [9] | mortality at 200 ppm [5] | percent effect (mortality or growth inhibition) at 3 ppm [7] | mortality at 200 ppm [8]
